The values that follow are results of earlier work, collected in patent US8324158B2, “Methods for inhibiting CLC-2 channel with GATX2” (Georgia Tech Research Corporation, priority 2006, dated 2012).

pKd: −log10 of the molar value.

The series has as its target ClC-1 (Homo sapiens, UniProt P35523).

Chain of ClC-1 (P35523 whole entry, species assumed): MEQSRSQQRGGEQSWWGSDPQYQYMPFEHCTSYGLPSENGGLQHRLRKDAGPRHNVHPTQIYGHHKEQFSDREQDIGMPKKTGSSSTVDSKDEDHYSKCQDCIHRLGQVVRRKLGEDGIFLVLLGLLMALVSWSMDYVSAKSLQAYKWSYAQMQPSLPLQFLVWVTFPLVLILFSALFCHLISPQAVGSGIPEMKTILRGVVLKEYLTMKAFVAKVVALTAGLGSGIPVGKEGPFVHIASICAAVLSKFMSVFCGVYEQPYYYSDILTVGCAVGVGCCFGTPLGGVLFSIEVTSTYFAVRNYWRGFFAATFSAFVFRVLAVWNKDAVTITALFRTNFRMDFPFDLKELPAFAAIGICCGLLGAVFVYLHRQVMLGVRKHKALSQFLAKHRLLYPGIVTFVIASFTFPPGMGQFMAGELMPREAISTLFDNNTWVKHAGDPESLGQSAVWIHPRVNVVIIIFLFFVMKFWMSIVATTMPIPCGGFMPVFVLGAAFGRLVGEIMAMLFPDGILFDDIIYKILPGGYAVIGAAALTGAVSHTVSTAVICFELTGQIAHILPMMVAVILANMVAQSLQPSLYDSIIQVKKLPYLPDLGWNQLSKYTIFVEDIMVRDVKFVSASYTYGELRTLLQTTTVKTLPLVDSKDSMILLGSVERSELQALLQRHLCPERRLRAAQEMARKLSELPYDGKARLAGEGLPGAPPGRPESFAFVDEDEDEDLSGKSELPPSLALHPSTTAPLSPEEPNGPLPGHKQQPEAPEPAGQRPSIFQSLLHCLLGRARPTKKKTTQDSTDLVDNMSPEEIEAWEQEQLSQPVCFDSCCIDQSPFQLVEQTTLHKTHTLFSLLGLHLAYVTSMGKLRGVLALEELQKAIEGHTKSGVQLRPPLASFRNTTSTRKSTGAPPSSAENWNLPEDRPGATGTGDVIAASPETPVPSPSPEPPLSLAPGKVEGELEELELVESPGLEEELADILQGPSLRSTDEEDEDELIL

Take `CC(Oc1ccc(Cl)cc1)C(=O)O` (stereo not shown) [CPP]: the pKd was 4.82.

As usually defined, the pKd is the negative decadic logarithm of the Kd, by convention in mol/L.
